Reference: patent US20260285857A1, “BICYCLIC AND HETEROCYCLIC AMIDE COMPOUNDS” (priority 2024, published 2026)

Test system: immunoglobulin light chain protein WIL-FL T46L
Test: Differential scanning fluorimetry (thermal shift) assay
Assay type: binding
Conditions: temperature shift [Tm]compound-[Tm]vehicle, recombinant WIL-FL T46L

Row | SMILES | DSF (Table A) | DSF (Table B)
1 | CCS(=O)(=O)Nc1n[nH]c(C2C3COC2(c2nc4c(C)cc(N5CC[C@](C)(c6ccccc6)C5)cn4n2)C3)n1 (stereo partly shown) [Compound 93] | ***** (>2.5° C.=*****) | 
2 | COc1ncc(N2CC[C@@]3(CCN(C(=O)c4nc5c(C)cc(N6CC[C@](C)(c7ccccc7)C6)cn5n4)C3)C2)cc1C(=O)O [Compound 718] |  | ***** (>2.5° C.=*****)
3 | Cc1cc(N2CC[C@](C)(c3ccccc3)C2)cn2nc(C(=O)NC3CC4(C3)CN(c3ccnc(C(=O)O)c3)C4)nc12 [Compound 691, (R)-4-(6-(8-methyl-6-(3-methyl-3-phenylpyrrolidin-1-yl)-[1,2,4]triazolo[1,5-a]pyridine-2-carboxamido)-2-azaspiro[3.3]heptan-2-yl)picolinic acid] |  | ***** (>2.5° C.=*****)
4 | Cc1cc(N2CC[C@](C)(c3ccccc3)C2)cn2nc(C34CC(N(C)C)(CO3)C4CO)nc12 (stereo partly shown) [Compound 50] | ***** (>2.5° C.=*****) | 
5 | COC(=O)C1C2CN(C3CCC34CC(NC(=O)c3nc5c(C)cc(N6CC[C@](C)(c7ccccc7)C6)cn5n3)C4)CC21 (stereo partly shown) [Compound 372] | ***** (>2.5° C.=*****) | 
6 | Cc1cc(N2CC[C@](C)(c3ccccc3)C2)cn2nc(C34CC(CO3)C4N3CC4(CN(c5cccc(C(=O)O)n5)C4)NC3=O)nc12 (stereo partly shown) [Compound 516] |  | ***** (>2.5° C.=*****)
7 | Cc1cc(N2CC[C@](C)(c3ccccc3)C2)cn2nc(C(=O)NC3CC(O)(C(F)(F)F)C3)nc12 (stereo partly shown) [Compound 205] | ***** (>2.5° C.=*****) | 
8 | Cc1cc(N2CC[C@](C)(c3ccccc3)C2)cn2nc(C(=O)N3CCC4(CCN(C5CCCC(C(=O)O)C5)C4)C3)nc12 (stereo partly shown) [Compound 289] | ***** (>2.5° C.=*****) | 
9 | Cc1cc(N2CC[C@@](CO)(c3ccccc3)C2)cn2nc(C(=O)N3CC[C@@]4(CCN(c5cccc(C(=O)O)n5)C4)C3)nc12 [Compound 331] | ** (>0.5-1 °C =**) | 
10 | Cc1cc(N2CC[C@](C)(c3ccccc3)C2)cn2nc(C(=O)N3CC45CN(c6cccc(C(=O)O)n6)CC4(C3)C5)nc12 (stereo partly shown) [Compound 281] | ***** (>2.5° C.=*****) | 
11 | Cc1cc(N2CC[C@](C)(c3ccccc3)C2)cn2nc(C(=O)NC3CCN(c4cccc(C(=O)O)n4)CC3(C)C)nc12 (stereo partly shown) [Compound 261] | ***** (>2.5° C.=*****) | 
12 | CNC(=O)c1nc2c(C(C)C)cc(N3CC[C@](C)(c4ccccc4)C3)cn2n1 [Compound 337] | **** (>1.5-2.5° C.=****) | 
13 | Cc1cc(N2CC[C@](C)(c3ccccc3)C2)cn2nc(C(=O)NC3CCC(c4cccc(C(=O)O)n4)OC3)nc12 (stereo partly shown) [Compound 254] | ***** (>2.5° C.=*****) | 
14 | Cc1cc(N2CC[C@](C)(c3ccccc3)C2)cn2nc(C(=O)N3CC[C@@H]4NC(=O)C[C@@H]43)nc12 [Compound 762] |  | ***** (>2.5° C.=*****)
15 | Cc1cc(N2CC[C@](C)(c3ccccc3)C2)cn2nc(C34CC(C(=O)N[C@@H](C)CO)(CO3)C4)nc12 [Compound 442] |  | ***** (>2.5° C.=*****)
16 | Cc1cc(N2CCC(C)(n3cc(C(F)(F)F)cn3)C2)cn2nc(C(=O)N3CC[C@@]4(CCN(c5cccc(C(=O)O)n5)C4)C3)nc12 (stereo partly drawn) [Compound 744, 6-[(5R)-2-[8-methyl-6-[3-methyl-3-[4-(trifluoromethyl)pyrazol-1-yl]pyrrolidin-1-yl]-[1,2,4]triazolo[1,5-a]pyridine-2-carbonyl]-2,7-diazaspiro[4.4]nonan-7-yl]pyridine-2-carboxylic acid] |  | ***** (>2.5° C.=*****)
17 | Cc1cc(OC[C@H](C)c2ccccc2)cn2nc(C(=O)NC3CCN(c4cccc(C(=O)O)n4)CC3)nc12 [Compound 307] | ***** (>2.5° C.=*****) | 
18 | Cc1cc(N2CC[C@](C)(c3ccccc3)C2)cn2nc(C(=O)N[C@@H]3CC[C@H]3O)nc12 [Compound 160] | ***** (>2.5° C.=*****) | 
19 | Cc1cc(N2CC[C@](C)(c3ccccc3)C2)cc2nc(C(=O)N3CC[C@@]4(CCN(c5cccc(C(=O)O)n5)C4)C3)oc12 [Compound 756, 6-[(5R)-2-[7-methyl-5-[(3R)-3-methyl-3-phenyl-pyrrolidin-1-yl]-1,3-benzoxazole-2-carbonyl]-2,7-diazaspiro[4.4]nonan-7-yl]pyridine-2-carboxylic acid] |  | **** (>1.5-2.5° C.=****)
20 | Cc1cc(N2CC[C@](C)(c3ccccc3)C2)cn2nc(C(=O)NC3CCN(c4cncnc4)C3)nc12 (stereo partly shown) [Compound 190] | ***** (>2.5° C.=*****) | 
21 | Cc1cc(N2CC3(CCC3c3cccc(F)c3)C2)cn2nc(C(=O)N3C[C@@H]4CN(c5cccc(C(=O)O)n5)C[C@@H]4C3)nc12 (stereo partly shown) [Compound 739] |  | ***** (>2.5° C.=*****)
22 | Cc1cc(N2CC[C@](C)(c3ccccc3)C2)cn2nc(C(=O)NC3CC[C@@H]3Nc3cccc(C(=O)O)n3)nc12 (stereo partly shown) [Compound 635] |  | ***** (>2.5° C.=*****)
23 | CO[C@H]1CN(c2cccc(C(=O)O)n2)CC1NC(=O)c1nc2c(C)cc(N3CC[C@](C)(c4ccccc4)C3)cn2n1 (stereo partly shown) [Compound 666] |  | ***** (>2.5° C.=*****)

Row | SMILES | DSF (Table A) | DSF (Table B)
24 | Cc1cc(OC[C@H](C)c2ccccc2)cn2nc(C(=O)NC3CCN(c4ccnc(C(=O)O)c4)CC3)nc12 [Compound 320] | ***** (>2.5° C.=*****) | 
25 | Cc1cc(N2CC[C@](C)(c3ccccc3)C2)cn2nc(C(=O)N3CCC4(CCC(C5CCC(C(=O)O)CC5)C4)C3)nc12 (stereo partly drawn) [Compound 674, 4-(2-(8-methyl-6-((R)-3-methyl-3-phenylpyrrolidin-1-yl)-[1,2,4]triazolo[1,5-a]pyridine-2-carbonyl)-2-azaspiro[4.4]nonan-7-yl)cyclohexane-1-carboxylic acid] |  | ***** (>2.5° C.=*****)
26 | COC(=O)c1cccc(N2C[C@H]3CN(C(=S)c4nc5c(C)cc(N6CCC(C)(c7nnc(C)s7)C6)cn5n4)C[C@H]3C2)n1 (stereo partly shown) [Compound 38, methyl 6-[5-[8-methyl-6-[3-methyl-3-(5-methyl-1,3,4-thiadiazol-2-yl)pyrrolidin-1-yl]-[1,2,4]triazolo[1,5-a]pyridine-2-carbothioyl]-1,3,3a, 4,6,6a-hexahydropyrrolo[3,4-c]pyrrol-2-yl]pyridine-2-carboxylate] | * (0-0.5° C.=*) | 
27 | CNC(=O)c1nc2c(C)cc(N3CCC(C)(c4ncco4)C3)cn2n1 (stereo not shown) [Compound 14, N,8-dimethyl-6-(3-methyl-3-(oxazol-2-yl)pyrrolidin-1-yl)-[1,2,4]triazolo[1,5-a]pyridine-2-carboxamide] | ** (>0.5-1 °C =**) | 
28 | Cc1cc(N2CC[C@](C)(c3ccccc3)C2)cn2nc(C(=O)N3CC[C@@]4(CCN(c5ccc(F)c(C(=O)O)n5)C4)C3)nc12 [Compound 711] |  | ***** (>2.5° C.=*****)
29 | Cc1cc(N2CC[C@](C)(c3ccccc3)C2)cn2nc(C(=O)N3CC4CN(c5cccc(C(=O)O)n5)CC4(C(N)=O)C3)nc12 (stereo partly shown) [Compound 255] | ***** (>2.5° C.=*****) | 
30 | Cc1cc(OC[C@H](C)c2cccc(F)c2)cn2nc(C(=O)NC3CCN(c4ccnc(C(=O)O)c4)CC3)nc12 [Compound 308] | ***** (>2.5° C.=*****) | 
31 | CCC(=O)NCC12COC(c3nc4c(C)cc(N5CC[C@](C)(c6ccccc6)C5)cn4n3)(C1)C2c1n[nH]c(C)n1 (stereo partly shown) [Compound 588] |  | ***** (>2.5° C.=*****)
32 | Cc1cc(N2CC[C@](C)(c3ccccc3)C2)cn2nc(C(=O)N3CC[C@@]4(CCN(C(=O)C56CCCC(C(=O)O)(C5)C6)C4)C3)nc12 [Compound 733, 5-((R)-7-(8-methyl-6-((R)-3-methyl-3-phenylpyrrolidin-1-yl)-[1,2,4]triazolo[1,5-a]pyridine-2-carbonyl)-2,7-diazaspiro[4.4]nonane-2-carbonyl)bicyclo[3.1.1]heptane-1-carboxylic acid] |  | ***** (>2.5° C.=*****)
33 | CC(C)(O)CNC(=O)c1nc2c(CO)cc(N3CC[C@](C)(c4ccccc4)C3)cn2n1 [Compound 350] | ***** (>2.5° C.=*****) | 
34 | Cc1cc(N2CC[C@](C)(c3ccccc3)C2)cn2nc(C(=O)N3CCC4(CC3)COCC4N3CC4C(C3)C4C(=O)O)nc12 (stereo partly shown) [Compound 353] | ***** (>2.5° C.=*****) | 
35 | Cc1cc(OC[C@H](C)c2ccccc2)cn2nc(C(=O)O)nc12 [Compound 312] | **** (>1.5-2.5° C.=****) | 
36 | Cc1cc(N2CC[C@](C)(c3ccccc3)C2)cn2nc(C(=O)N3CC[C@@]4(CCN(c5cccc(C(=O)O)n5)C4)C3)nc12 [Compound 267] | ***** (>2.5° C.=*****) | 
37 | CC(=O)NC12COC(c3nc4c(C)cc(N5CC[C@](C)(c6ccccc6)C5)cn4n3)(C1)C2c1nc(C)n(C)n1 (stereo partly shown) [Compound 540] |  | ***** (>2.5° C.=*****)
38 | Cc1cc(N2CC[C@](C)(c3ccccc3)C2)cn2nc(C34CC(C(=O)NC5CCOC5)(CO3)C4)nc12 (stereo partly shown) [Compound 446] |  | ***** (>2.5° C.=*****)
39 | Cc1cc(N2CC[C@](C)(c3ccccc3)C2)cn2nc(C34CC(N)(CO3)C4CO)nc12 (stereo partly drawn) [Compound 4, (4-amino-1-(8-methyl-6-((R)-3-methyl-3-phenylpyrrolidin-1-yl)-[1,2,4]triazolo[1,5-a]pyridin-2-yl)-2-oxabicyclo[2.1.1]hexan-5-yl)methanol] | ***** (>2.5° C.=*****) | 
40 | Cc1cc(N2CC[C@](C)(c3ccccc3)C2)cn2nc(C(=O)NCC3(O)CCOCC3)nc12 [Compound 116] | ***** (>2.5° C.=*****) | 
41 | Cc1cc(N2CC[C@](C)(c3ccccc3)C2)cn2nc(C(=O)NCC(C)(C)C(=O)O)nc12 [Compound 136] | ***** (>2.5° C.=*****) | 
42 | Cc1cc(OCC2(c3ccccc3)CC2)cn2nc(C34CC(CO3)C4N)nc12 (stereo not shown) [Compound 96] | **** (>1.5-2.5° C.=****) | 
43 | Cc1cc(N2CC[C@](C)(c3ccccc3)C2)cn2nc(C(=O)NC3COCC3(C)O)nc12 (stereo partly shown) [Compound 141] | ***** (>2.5° C.=*****) | 
44 | COC(=O)CC1CCN(C(=O)c2nc3c(C)cc(N4CC[C@](C)(c5ccccc5)C4)cn3n2)C1 (stereo partly shown) [Compound 143] | ***** (>2.5° C.=*****) | 
45 | Cc1cc(N2CCC(C)(c3ccc(F)c(F)c3)C2)cn2nc(C(=O)N3C[C@@H]4CN(c5cccc(C(=O)O)n5)C[C@@H]4C3)nc12 (stereo partly shown) [Compound 421] | ***** (>2.5° C.=*****) | 
46 | Cc1cc(N2CC[C@](C)(c3ccccc3)C2)cn2nc(C(=O)NC3CN(c4cccc(C(=O)O)n4)CCC3(C)O)nc12 (stereo partly shown) [Compound 230] | ***** (>2.5° C.=*****) | 
